Source: ChEMBL document CHEMBL1140111, “Potent, orally bioavailable delta opioid receptor agonists for the treatment of pain: discovery of N,N-diethyl-4-(5-hydroxyspiro[chromene-2,4'-piperidine]-4-yl)benzamide (ADL5859)” (J Med Chem, 2008)
Active and inactive are the calls of the source. The calls are words filed in the database; no cut-off is given here.

How the values were obtained:
[1] = target: T1, Kappa-type opioid receptor (Homo sapiens, UniProt P41145); assay: Displacement of [3H]diprenorphine from human kappa opioid receptor in CHO cells; type: cell-based
T1 sequence (P41145 whole entry): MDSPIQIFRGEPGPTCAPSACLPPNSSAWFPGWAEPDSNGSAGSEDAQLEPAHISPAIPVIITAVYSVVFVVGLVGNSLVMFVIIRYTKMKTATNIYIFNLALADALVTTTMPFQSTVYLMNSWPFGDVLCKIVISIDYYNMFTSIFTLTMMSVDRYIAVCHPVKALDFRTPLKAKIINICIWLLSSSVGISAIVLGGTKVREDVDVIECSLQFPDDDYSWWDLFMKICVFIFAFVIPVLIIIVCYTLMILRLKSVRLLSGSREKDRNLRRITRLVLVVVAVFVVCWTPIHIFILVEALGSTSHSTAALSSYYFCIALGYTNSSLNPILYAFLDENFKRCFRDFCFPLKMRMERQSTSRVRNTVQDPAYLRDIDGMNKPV

[2] = target: T2, Mu-type opioid receptor (Homo sapiens, UniProt P35372); assay: Displacement of [3H]diprenorphine from human mu opioid receptor in CHO cells at 10 uM; type: cell-based
T2 sequence (P35372 whole entry): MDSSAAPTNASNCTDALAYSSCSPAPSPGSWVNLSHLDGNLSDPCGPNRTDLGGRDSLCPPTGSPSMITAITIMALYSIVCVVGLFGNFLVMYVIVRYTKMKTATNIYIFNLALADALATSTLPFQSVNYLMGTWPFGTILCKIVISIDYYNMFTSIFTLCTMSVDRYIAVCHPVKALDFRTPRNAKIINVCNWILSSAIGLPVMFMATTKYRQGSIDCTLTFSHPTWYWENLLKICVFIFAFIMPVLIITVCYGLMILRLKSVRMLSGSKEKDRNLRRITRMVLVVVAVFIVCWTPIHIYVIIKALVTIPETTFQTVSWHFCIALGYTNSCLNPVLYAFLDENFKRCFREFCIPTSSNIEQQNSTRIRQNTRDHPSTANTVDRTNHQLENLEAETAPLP

[3] = target: T3, Delta-type opioid receptor (Homo sapiens, UniProt P41143); assay: biochemical
T3 sequence (P41143 whole entry): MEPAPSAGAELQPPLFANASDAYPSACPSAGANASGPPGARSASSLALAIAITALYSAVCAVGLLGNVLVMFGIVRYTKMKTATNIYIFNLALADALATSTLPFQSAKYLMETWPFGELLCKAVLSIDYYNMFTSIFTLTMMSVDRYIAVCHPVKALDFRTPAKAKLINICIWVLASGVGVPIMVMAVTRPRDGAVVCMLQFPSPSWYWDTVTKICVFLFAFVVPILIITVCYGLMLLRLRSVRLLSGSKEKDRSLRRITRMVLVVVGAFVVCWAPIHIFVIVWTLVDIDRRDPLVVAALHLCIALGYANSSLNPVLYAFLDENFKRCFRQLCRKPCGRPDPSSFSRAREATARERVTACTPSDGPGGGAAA
Description: Displacement of [3H]diprenorphine from human delta opioid receptor in CHO cells

[4] = target: T1, Kappa-type opioid receptor; assay: Displacement of [3H]diprenorphine from human kappa opioid receptor in CHO cells at 10 uM; type: cell-based
[5] = target: T3, Delta-type opioid receptor
Description: Agonist activity at human delta opioid receptor in CHO cells assessed as stimulation of [35S]GTPgammaS binding

[6] = Volume of distribution at steady state in dog at 1 mg/kg, iv and 3.0 mg/kg, po; type: ADME, organism-based, Canis lupus familiaris; details: in vivo, read-out: Vdss
[7] = system: Rattus norvegicus; assay: Antihyperalgesic effect in rat assessed as reversal of Freund's complete adjuvant-induced paw pressure at 3 mg/kg, po; type: functional
[8] = system: Mus musculus; assay: Convulsion activity in mouse upto 1000 mg/kg, po; type: functional, organism-based; set-up: dose 1000 mg/kg
[9] = system: Rattus norvegicus; assay: Toxicity in rat assessed as EEG disturbances at 10 mg/kg and 30 mg/kg, po; type: organism-based; details: in vivo
[10] = Cmax in rat at 0.25 mg/kg, iv and 3.0 mg/kg, po; type: ADME, organism-based; details: in vivo
[11] = Clearance in rat at 0.25 mg/kg, iv and 3.0 mg/kg, po; type: ADME, organism-based; details: in vivo
[12] = Metabolic stability in dog liver microsomes after 30 mins; type: ADME, Canis lupus familiaris, Microsome; details: read-out: Stability
[13] = Oral bioavailability in dog at 3 mg/kg; type: ADME, organism-based, Canis lupus familiaris; details: in vivo
[14] = Fraction unbound in dog plasma at 2 uM; type: ADME, cell-free, Canis lupus familiaris; details: read-out: PPB
[15] = system: Rattus norvegicus; assay: Increase in stereotypic behavior in rat upto 1000 mg/kg, po; type: functional, organism-based; set-up: dose 1000 mg/kg
[16] = Volume of distribution at steady state in rat at 0.25 mg/kg, iv and 3.0 mg/kg, po; type: ADME, organism-based; details: in vivo, read-out: Vdss
[17] = system: Liver microsomes; assay: Metabolic stability in rat liver microsomes; type: ADME, Microsome
[18] = system: Liver microsomes; assay: Metabolic stability in human liver microsomes; type: ADME, Microsome
[19] = system: Rattus norvegicus; assay: Antihyperalgesic effect in rat assessed as reversal of Freund's complete adjuvant-induced paw pressure at 3 mg/kg, po in presence of naltrindole; type: functional, organism-based; set-up: dose 3 mg/kg
[20] = Oral bioavailability in rat at 3 mg/kg; type: ADME, organism-based; details: in vivo
[21] = Fraction unbound in rat plasma protein at 2 uM; type: ADME, cell-free; details: read-out: PPB
[22] = system: Rattus norvegicus; assay: Convulsion activity in rat upto 1000 mg/kg, po; type: functional, organism-based; set-up: dose 1000 mg/kg
[23] = Cmax in dog at 1 mg/kg, iv and 3.0 mg/kg, po; type: ADME, organism-based, Canis lupus familiaris; details: in vivo
[24] = system: Mus musculus; assay: Increase in stereotypic behavior in mouse upto 1000 mg/kg, po; type: functional, organism-based; set-up: dose 1000 mg/kg
[25] = system: Rattus norvegicus; assay: Antidepressant activity in Sprague-Dawley rat assessed as increase in time spent swimming at 3 mg/kg, po in presence of naltrindole by forced swim test; type: functional, organism-based; set-up: dose 3 mg/kg
[26] = species on record: Rattus norvegicus; assay: Antihyperalgesic effect in rat assessed as reversal of Freund's complete adjuvant-induced paw pressure after 60 mins; type: functional, organism-based
[27] = Half life in rat at 3.0 mg/kg, po; type: ADME, organism-based; set-up: dose 3 mg/kg, route oral; details: in vivo
[28] = system: Rattus norvegicus; assay: Antidepressant activity in Sprague-Dawley rat assessed as increase in time spent swimming at 3 mg/kg, po by forced swim test; type: functional, organism-based; set-up: dose 3 mg/kg
[29] = system: Rattus norvegicus; assay: Antidepressant activity in Sprague-Dawley rat assessed as decrease in immobility time at 3 mg/kg, po by forced swim test; type: functional, organism-based; set-up: dose 3 mg/kg
[30] = Fraction unbound in human plasma at 2 uM; type: ADME, cell-free; details: read-out: PPB
[31] = target: Voltage-gated inwardly rectifying potassium channel KCNH2 (Homo sapiens, UniProt Q12809)
Sequence of Voltage-gated inwardly rectifying potassium channel KCNH2 (Q12809 whole entry): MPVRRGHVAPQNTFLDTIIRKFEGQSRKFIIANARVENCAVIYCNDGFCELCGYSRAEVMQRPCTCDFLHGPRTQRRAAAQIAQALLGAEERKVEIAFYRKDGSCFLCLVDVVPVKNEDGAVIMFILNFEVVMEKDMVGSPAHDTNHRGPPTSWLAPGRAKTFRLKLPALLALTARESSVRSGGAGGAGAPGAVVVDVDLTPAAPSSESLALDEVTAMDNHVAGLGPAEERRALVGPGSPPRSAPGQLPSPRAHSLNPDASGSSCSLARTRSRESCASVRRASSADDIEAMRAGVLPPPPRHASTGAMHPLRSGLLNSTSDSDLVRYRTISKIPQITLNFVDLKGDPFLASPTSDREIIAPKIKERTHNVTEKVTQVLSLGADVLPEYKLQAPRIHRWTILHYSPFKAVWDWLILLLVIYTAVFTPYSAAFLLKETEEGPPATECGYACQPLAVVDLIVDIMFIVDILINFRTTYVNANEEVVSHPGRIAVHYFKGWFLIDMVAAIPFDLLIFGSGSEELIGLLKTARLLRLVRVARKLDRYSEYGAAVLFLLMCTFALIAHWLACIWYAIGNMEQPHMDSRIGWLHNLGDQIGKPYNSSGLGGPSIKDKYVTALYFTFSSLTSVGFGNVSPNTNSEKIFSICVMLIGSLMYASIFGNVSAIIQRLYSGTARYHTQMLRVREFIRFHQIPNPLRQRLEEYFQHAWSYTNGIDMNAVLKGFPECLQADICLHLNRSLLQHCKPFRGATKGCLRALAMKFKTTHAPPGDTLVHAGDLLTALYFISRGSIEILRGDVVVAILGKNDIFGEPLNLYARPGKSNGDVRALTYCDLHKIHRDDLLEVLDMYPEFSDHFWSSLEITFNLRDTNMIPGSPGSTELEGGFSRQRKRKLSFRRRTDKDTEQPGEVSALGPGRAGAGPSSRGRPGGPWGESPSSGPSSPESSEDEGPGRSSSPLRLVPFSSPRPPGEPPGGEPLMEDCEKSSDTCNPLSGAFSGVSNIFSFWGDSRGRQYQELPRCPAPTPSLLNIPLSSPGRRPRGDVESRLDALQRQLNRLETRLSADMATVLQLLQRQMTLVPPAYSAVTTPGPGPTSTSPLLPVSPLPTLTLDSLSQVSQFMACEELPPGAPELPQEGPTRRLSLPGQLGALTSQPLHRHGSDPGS
Description: Inhibition of human ERG channel in HEK293 cells by voltage-clamp method

[32] = Half life in dog at 3.0 mg/kg, po; type: ADME, organism-based, Canis lupus familiaris; set-up: dose 3 mg/kg, route oral; details: in vivo
[33] = Clearance in dog at 1 mg/kg, iv and 3.0 mg/kg, po; type: ADME, organism-based, Canis lupus familiaris; details: in vivo
[34] = system: Rattus norvegicus; assay: Increase in locomotory activity in rat upto 1000 mg/kg, po; type: functional, organism-based; set-up: dose 1000 mg/kg
[35] = system: Mus musculus; assay: Increase in locomotory activity in mouse upto 1000 mg/kg, po; type: functional, organism-based; set-up: dose 1000 mg/kg
[36] = species on record: Rattus norvegicus; assay: Antihyperalgesic effect in rat assessed as reversal of Freund's complete adjuvant-induced paw pressure; type: functional
[37] = species on record: Rattus norvegicus; assay: Antihyperalgesic effect in rat assessed as reversal of Freund's complete adjuvant-induced paw pressure after 30 mins; type: functional, organism-based
[38] = target: T2, Mu-type opioid receptor; assay: Displacement of [3H]diprenorphine from human mu opioid receptor in CHO cells; type: cell-based

C1=C(c2ccccc2)c2ccccc2OC12CCNCC2
Ki [1]: 3400 nM | inhibition [2]: 42%

FC(F)(F)c1ccc(C2=CC3(CCNCC3)Oc3ccccc32)cc1
Ki [3]: 150 nM | Ki [1]: 2000 nM | inhibition [2]: 42%

N#Cc1ccc(C2=CC3(CCNCC3)Oc3ccccc32)cc1
Ki [3]: 18 nM | inhibition [4]: 63% | EC50 [5]: 200 nM | inhibition [2]: 60%

C=CCN1C[C@H](C)N([C@H](c2ccc(C(=O)N(CC)CC)cc2)c2cccc(OC)c2)C[C@H]1C
inhibition [4]: 28% | inhibition [2]: 25%

CCN(CC)C(=O)c1ccc(C2=CC3(CCN(C)CC3)Oc3ccccc32)cc1
Ki [3]: 3.5 nM | inhibition [4]: 24% | EC50 [5]: 89 nM | inhibition [2]: 12%

CCN(CC)C(=O)c1ccc(C2=CC3(CCNCC3)Oc3cc(O)ccc32)cc1
inhibition [4]: 39% | inhibition [2]: 35%

CCN(CC)C(=O)c1ccc(C2=CC3(CCNCC3)Oc3cccc(O)c32)cc1 [ADL-5859]
Vd [6]: 2.5 L/kg | Activity [7]: 100% | Activity [8]: Non-toxic | Activity [9]: Non-toxic | Cmax [10]: 117 nM | clearance [11]: 30 mL/min/kg | remaining at 0.5 h [12]: 98.7% | bioavailability [13]: 66.5% | fraction unbound at 2 µM [14]: 0.152 | Activity [15]: Non-toxic | Vd [16]: 10.7 L/kg | Stability [17]: 69.2% | Stability [18]: 64.9% | Activity [19]: inactive | bioavailability [20]: 33.4% | Ki [3]: 0.84 nM | fraction unbound at 2 µM [21]: 0.159 | Activity [22]: Non-toxic | Cmax [23]: 1730 nM | Activity [24]: Non-toxic | Activity [25]: inactive | Activity [26]: Active | half-life [27]: 318 min | Activity [28]: Active | inhibition [4]: 37% | Activity [29]: Active | fraction unbound at 2 µM [30]: 0.419 | EC50 [5]: 20 nM | IC50 [31]: 78 µM | half-life [32]: 282 min | clearance [33]: 6.67 mL/min/kg | inhibition [2]: 32% | Activity [34]: Non-toxic | Activity [35]: Non-toxic | ED50 [36]: 1.4 mg/kg | Activity [37]: Active

c1ccc(C2CC3(CCNCC3)Oc3ccccc32)cc1 (stereo not given)
Ki [3]: 160 nM

O=S(=O)(Cc1ccc(Cl)cc1)N1CCC2(CC1)CC(c1ccccc1)c1ccccc1O2 (stereo not given)
Ki [3]: 500 nM

CCN(CC)C(=O)c1ccc(C2=CC3(CCNCC3)Oc3c(O)cccc32)cc1
Ki [3]: 360 nM | inhibition [4]: 28% | inhibition [2]: 4%

CCN1CCC2(C=C(c3ccc(C(=O)N(CC)CC)cc3)c3ccccc3O2)CC1
inhibition [4]: 13% | inhibition [2]: 13%

C=CCN1C[C@H](C)N([C@H](c2ccc(C(=O)N(CC)CC)cc2)c2cccc(O)c2)C[C@H]1C
Ki [38]: 260 nM | Ki [3]: 0.32 nM | Ki [1]: 3400 nM | Ki [4]: 130 nM | EC50 [5]: 0.4 nM

Oc1ccc(C2=CC3(CCNCC3)Oc3ccccc32)cc1
Ki [3]: 59 nM | inhibition [4]: 58% | EC50 [5]: 220 nM | IC50 [31]: 0.643 µM | inhibition [2]: 54%

COC(=O)c1ccc(C2=CC3(CCNCC3)Oc3ccccc32)cc1
Ki [1]: 520 nM | inhibition [2]: 54%

COc1ccc(C2=CC3(CCNCC3)Oc3ccccc32)cc1
inhibition [4]: 42% | inhibition [2]: 42%

O=C(O)c1ccc(C2=CC3(CCNCC3)Oc3ccccc32)cc1
Ki [3]: 11 nM | inhibition [4]: 14% | EC50 [5]: 220 nM | inhibition [2]: 13%

CCN(CC)C(=O)c1ccc(C2=CC3(CCNCC3)Oc3ccc(O)cc32)cc1
Activity [7]: 35% | Ki [3]: 0.43 nM | Ki [1]: 830 nM | EC50 [5]: 1.4 nM | IC50 [31]: 19.8 µM | inhibition [2]: 36%

CCN(CC)C(=O)c1cccc(C2=CC3(CCNCC3)Oc3ccccc32)c1
Ki [3]: 330 nM | inhibition [4]: 10% | inhibition [2]: 12%

CCN(CC)C(=O)c1ccc(C2=CC3(CCN(C(C)=O)CC3)Oc3ccccc32)cc1
Ki [3]: 1300 nM | inhibition [4]: 2% | IC50 [31]: 47.4 µM | inhibition [2]: 14%

CCN(CC)C(=O)c1ccccc1C1=CC2(CCNCC2)Oc2ccccc21
inhibition [4]: 45% | inhibition [2]: 12%

Cc1ccc(C2=CC3(CCNCC3)Oc3ccccc32)cc1
inhibition [4]: 57% | inhibition [2]: 49%
